Assay: Viscosity by vertical falling sphere method
Type: physicochemical
Details: room temperature 25±1° C.; 1.0 and 5.0 wt. % in water; compared to the tranexamate hydrochloride salt; FIG. 2
Description: Compositions of tranexamate ester salts with differing counter-ions as shown in Table 5 were prepared as follows. 1) Ingredients A to C were combined based on the weight ratios in Table 5. 2) The mixture was heated with stirring to 80±5° C. until all solids were dissolved. 3) The homogeneous mixture was removed from the heat and allowed to cool to room temperature (25±5° C.).
The viscosity at room temperature (25±1° C.) of Examples 13-16 was determined by the method of the vertical falling sphere using the equation μ=[2 (ρs−ρl) g a^2 ]/9v, where μ=dynamic viscosity, ρs=density of the sphere, ρl=density of the test material (Examples 13-16), g=standard gravity, a=radius of the sphere, and v=velocity of the sphere.
Results are represented in FIG. 2. […] Additionally, the tranexamate sulfonate salt yielded stable and homogeneous compositions not observed with the tranexamate hydrochloride salt (see Examples 1 to 12).

Question: Which Viscosity does the source give for `CCCCCCCCCCCCCCCCOC(=O)C1CCC(CN)CC1.CS(=O)(=O)O` (stereo not shown) [tranexamate sulfonate salt, Cetyl tranexamate mesylate] here?
Answer: Its Viscosity is “higher viscosity with increasing concentration”.

Reference: patent US12497349B2, “Salts of tranexamic acid esters” (Actera Ingredients, Inc., priority 2019, dated 2025)
